In US20160356723A1, “Light-Up Probes Based On Fluorogens With Aggregation Induced Emission Characteristics For Cellular Imaging And Drug Screening” (NATIONAL UNIVERSITY OF SINGAPORE, priority 2014, published 2016):

Key:
U87-MG cells = assay: Confocal imaging of intracellular thiols, U87-MG; format: cell-based, human; settings: BSO increased from 25 to 100 μM
Procedure: To explore the capability of using TPE-SS-D5-cRGD as a specific bioprobe for monitoring intracellular thiol levels in cancer cells, the probe is incubated with U87-MG human glioblastoma and MCF-7 breast cancer cell lines. U87-MG cells with overexpressed integrin αvβ3 on cellular membrane was chosen as integrin-positive cancer cell, while breast cancer cell MCF-7 with a low level of integrin αvβ3 expression was used as the negative control. […] It should be noted that the probe could also be used for live cell imaging. To provide further evidence for thiol-induced disulfide bond cleavage as the trigger of fluorescence turn-on, the U87-MG cells were also pretreated with buthionine sulfoximine (BSO) before incubation with TPE-SS-D5-cRGD. BSO is an inhibitor of g-glutamylcysteine synthetase which can inhibit the cells from synthesizing GSH. The fluorescence of TPE-SS-D5-cRGD treated U87-MG cells decreases as the concentration of BSO increases from 25 to 100 μM.

[1] = In vitro cytotoxicity studies; format: cell-based

| Structure (SMILES) | fluorescence of TPE-SS-D5-cRGD treated cells after BSO pretreatment (U87-MG cells) | in vitro cytotoxicity [1] |
| --- | --- | --- |
| CCCCS(=N)(=O)CCC(N)C(=O)O (centres unmarked) [BSO, buthionine sulfoximine] | decreases |  |
| N=C(N)NCCC[C@@H]1NC(=O)[C@H](CCCCNC(=O)[C@H](CC(=O)O)NC(=O)[C@H](CC(=O)O)NC(=O)[C@H](CC(=O)O)NC(=O)[C@H](CC(=O)O)NC(=O)[C@H](CC(=O)O)NC(=O)CCSSCCC(=O)NCc2ccc(C(=C(c3ccccc3)c3ccccc3)c3ccccc3)cc2)NC(=O)[C@@H](Cc2ccccc2)NC(=O)[C@H](CC(=O)O)NC(=O)CNC1=O [TPE-SS-D5-cRGD] |  | biocompatible |
